Where two headings read alike, the source gives them in different places.
Experiments:
HDACs = experiment: In vitro inhibition of HDACs (HDAC Inhibitor Drug Screening Kit, Biovision K340-100); format: biochemical
Protocol: The in vitro inhibitory activities of the compounds towards HDACs were tested according to the instructions in the HDAC Inhibitor Drug Screening Kit (Biovision/Catalog #K340-100).
(1) The compounds to be tested were each individually prepared as 2 mM, 200 μM and 40 μM solutions and their inhibitory activities at these concentrations were tested.

HDAC1 = HDAC1 (Homo sapiens (Human), UniProt Q13547); experiment: In vitro inhibition of subtype HDAC1 (HDAC1 Inhibitor Drug Screening Kit, Biovision); format: biochemical; conditions: for inhibition at 1 µM / inhibition at 10 µM: read-out: % Inhibition towards HDAC1
Protocol: The in vitro inhibitory activities of the compounds towards the subtype HDAC1 were tested according to the instructions in the HDAC1 Inhibitor Drug Screening Kit (Biovision).
(1) The compounds to be tested were each individually prepared as 10 μM and 1 μM solutions and their inhibitory activities at these concentrations were tested.
Each dilution sample was placed in two wells and the enzyme inhibition IC50 of the compound was tested.

[1] = tested on: Hut78 T lymphocytic leukemia cells; experiment: In vitro anti-proliferative effect, CCK-8 method, Hut78; format: cell-based; conditions: for inhibition at 10 µM / inhibition at 100 µM: read-out: Hut-78 (inhibition %)
In short: (§1)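 Percent growth inhibition, measured with CCK-8, in Hut78 and K562 leukemia cells at two compound concentrations, 10 μM and 100 μM.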

[2] = tested on: PANC-1 human pancreatic cancer cells; experiment: In vitro anti-proliferative effect, CCK-8 method, PANC-1; format: cell-based; conditions: for inhibition at 10 µM / inhibition at 100 µM: Homo sapiens, PANC-1
In short: (§2)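 Each compound is applied at 100 μM and at 10 μM. Inhibition percentages come from the CCK-8 method.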

[3] = tested on: Jurkat E6-1 human T-cell lymphoma; experiment: In vitro anti-proliferative effect, CCK-8 method, Jurkat E6-1; format: cell-based
In short: as §2

[4] = tested on: K562 human chronic myelogenous leukemia cells; experiment: In vitro anti-proliferative effect, CCK-8 method, K562; format: cell-based; conditions: for IC50 / inhibition at 10 µM / inhibition at 100 µM: Homo sapiens, K562
In short: as §1

[5] = tested on: A549 human lung cancer cells; experiment: In vitro anti-proliferative effect, CCK-8 method, A549; format: cell-based
In short: as §2

[6] = tested on: MDA-MB-435s human breast cancer cells; experiment: In vitro anti-proliferative effect, CCK-8 method, MDA-MB-435s; format: cell-based; conditions: for inhibition at 10 µM / inhibition at 100 µM: Homo sapiens, MDA-MB-435S
In short: as §2

[7] = tested on: Hep3B2.1-7 human liver cancer cells; experiment: In vitro anti-proliferative effect, CCK-8 method, Hep3B; format: cell-based
In short: as §2

[8] = tested on: PC-3 human prostate cancer; experiment: In vitro anti-proliferative effect, CCK-8 method, PC-3; format: cell-based
In short: as §2

[9] = tested on: Colo320 human colorectal cancer cell lines; experiment: In vitro anti-proliferative effect, CCK-8 method, Colo320; format: cell-based
In short: as §2

[10] = Maximum tolerance dose through intragastrical administration; format: in vivo; conditions: mice, administrated intragastrically
In short: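 ICR mice (8˜20 g, both sexes, 10 per group) fasted 6 h, then dosed once intragastrically at 0.3 ml/10 g. Physical signs and deaths recorded at 1, 2 and 4 h, then daily with body weight over 14 days; dead animals necropsied with pathology on suspicious organs.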

hERG potassium channel = hERG potassium channel (Homo sapiens (Human), UniProt Q12809); experiment: Effects on hERG potassium channel; format: cell-based; conditions: for inhibition at 10 µM: human, hERG potassium current, read-out: Maximum inhibition percentage at 10 μM (%); for IC50: read-out: Half inhibition concentration for the effect on hERG potassium current, IC50
[11] = Preliminary pharmacokinetics; conditions: in vivo, rat
human PC-3 tumors = experiment: Human PC-3 tumors transplanted in nude mice; format: in vivo; conditions: 50 mg/kg; for deaths, PC-3 model: 8 mice in each group
human A549 tumors = experiment: Human A549 tumors transplanted in nude mice; format: in vivo; conditions: 50 mg/kg; for tumor inhibition %, A549 (lung cancer) / deaths, A549 model: nude mice; for deaths, A549 model: 8 mice in each group
[12] = Homo sapiens, Jurkat E6.1, 10 μM
[13] = Homo sapiens, Jurkat E6.1, 100 μM
[14] = Homo sapiens, Hep3B cell strain, compound at 10 μM, CCK-8 method
[15] = Homo sapiens, Hep3B cell strain, compound at 100 μM, CCK-8 method
[16] = Homo sapiens, PC-3 cell strain, compound at 10 μM, CCK-8 method
[17] = Homo sapiens, PC-3 cell strain, compound at 100 μM, CCK-8 method
[18] = Homo sapiens, COLO 320, Colo320 cell strain, compound at 10 μM, CCK-8 method
[19] = Homo sapiens, COLO 320, Colo320 cell strain, compound at 100 μM, CCK-8 method
[20] = iv, 2 mg/kg, i.v., read-out: Intravenous half-life (converted)
[21] = oral, read-out: Oral half-life (converted)

Sequence of hERG potassium channel (Q12809 whole entry): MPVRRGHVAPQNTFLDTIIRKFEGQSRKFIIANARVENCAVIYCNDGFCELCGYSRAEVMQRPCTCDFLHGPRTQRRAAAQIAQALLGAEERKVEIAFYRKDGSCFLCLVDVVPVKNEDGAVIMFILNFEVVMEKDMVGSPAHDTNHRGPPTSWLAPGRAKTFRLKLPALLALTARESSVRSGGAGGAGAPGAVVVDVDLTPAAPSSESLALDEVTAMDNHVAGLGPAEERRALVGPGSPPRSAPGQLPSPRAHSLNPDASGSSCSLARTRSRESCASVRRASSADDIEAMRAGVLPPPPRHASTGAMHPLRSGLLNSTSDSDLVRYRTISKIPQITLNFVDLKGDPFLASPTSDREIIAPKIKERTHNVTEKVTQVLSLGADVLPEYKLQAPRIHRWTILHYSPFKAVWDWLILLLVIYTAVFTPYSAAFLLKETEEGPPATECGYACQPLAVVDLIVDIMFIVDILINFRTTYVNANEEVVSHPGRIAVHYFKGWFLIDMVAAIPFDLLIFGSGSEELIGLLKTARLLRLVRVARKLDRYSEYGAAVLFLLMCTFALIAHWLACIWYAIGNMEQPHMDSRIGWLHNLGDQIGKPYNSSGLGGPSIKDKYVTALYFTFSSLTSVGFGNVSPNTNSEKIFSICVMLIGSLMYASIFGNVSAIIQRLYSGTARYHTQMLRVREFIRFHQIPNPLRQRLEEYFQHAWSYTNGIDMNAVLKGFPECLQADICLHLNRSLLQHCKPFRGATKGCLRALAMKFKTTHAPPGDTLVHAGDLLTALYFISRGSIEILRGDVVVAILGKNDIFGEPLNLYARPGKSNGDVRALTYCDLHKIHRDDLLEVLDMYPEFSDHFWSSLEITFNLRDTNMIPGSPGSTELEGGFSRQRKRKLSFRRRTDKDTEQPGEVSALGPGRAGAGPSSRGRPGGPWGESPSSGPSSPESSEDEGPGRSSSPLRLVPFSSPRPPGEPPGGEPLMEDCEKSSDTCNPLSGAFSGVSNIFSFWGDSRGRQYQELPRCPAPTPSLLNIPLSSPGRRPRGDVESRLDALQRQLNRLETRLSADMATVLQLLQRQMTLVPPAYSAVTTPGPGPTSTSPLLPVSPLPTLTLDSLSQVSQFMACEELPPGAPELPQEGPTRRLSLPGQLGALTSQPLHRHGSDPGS
Sequence of HDAC1 (Q13547 whole entry): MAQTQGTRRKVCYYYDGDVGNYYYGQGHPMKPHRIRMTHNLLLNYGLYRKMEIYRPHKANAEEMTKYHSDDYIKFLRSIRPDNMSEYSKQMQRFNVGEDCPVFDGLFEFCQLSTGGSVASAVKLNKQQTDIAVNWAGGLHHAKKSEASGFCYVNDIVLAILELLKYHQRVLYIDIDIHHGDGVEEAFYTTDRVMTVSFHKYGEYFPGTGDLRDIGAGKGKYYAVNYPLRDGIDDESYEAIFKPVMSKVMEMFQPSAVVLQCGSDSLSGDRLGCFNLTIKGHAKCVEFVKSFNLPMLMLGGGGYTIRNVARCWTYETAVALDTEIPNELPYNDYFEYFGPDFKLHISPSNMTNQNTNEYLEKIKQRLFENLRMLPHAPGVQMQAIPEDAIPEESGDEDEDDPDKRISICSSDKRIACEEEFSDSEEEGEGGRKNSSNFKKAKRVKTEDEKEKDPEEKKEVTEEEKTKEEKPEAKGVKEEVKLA

In the case of `COc1cccc2c(Nc3ccc(C(=O)Nc4ccccc4N)cc3)ncnc12` [Compound V-9, N-(2-aminophenyl)-4-(8-methoxy-quinazoline-4-amino)benzamide], the IC50 (HDACs) is reported as 4.91 µM, the “Inhibition percentage (%) towards HDACs” value (HDACs; 40 μM) is reported as 1.9% and the “Inhibition percentage (%) towards HDACs” value (HDACs; 200 μM) is reported as 7.8%. The “Inhibition percentage (%) towards HDACs” value (HDACs; 2 mM) was 50.0%, the inhibition at 1 µM (HDAC1) was 33.8% and the inhibition at 10 µM (HDAC1) was 58.3%. For the same compound, the IC50 ([1]; Homo sapiens, HuT78) was 231 nM, the inhibition at 10 µM ([1]; Homo sapiens, HuT78) was 10.8% and the inhibition at 100 µM ([1]; Homo sapiens, HuT78, 100 μM) was 94%. For the same compound, the inhibition at 10 µM ([2]; 10 μM) was 22.3%, the inhibition at 100 µM ([2]; 100 μM) was 26.4% and the IC50 ([3]; Homo sapiens, Jurkat E6.1) was 12400 nM. It also gave an inhibition at 10 µM [3, 12] of 0.9%, an inhibition at 100 µM [3, 13] of 22.8% and an IC50 [4] of 19.9 µM. For the same compound, the inhibition at 10 µM ([4]; 10 μM) was -2.8%, the inhibition at 100 µM ([4]; 100 μM) was 30.3% and the IC50 ([5]; Homo sapiens, A549) was 29.9 µM. It also gave an inhibition at 10 µM ([5]; Homo sapiens, A549, 10 μM) of 24.6%, an inhibition at 100 µM ([5]; Homo sapiens, A549, 100 μM) of 42.3% and an inhibition at 10 µM ([6]; 10 μM) of -11.9%. For the same compound, the inhibition at 100 µM ([6]; 100 μM) was 11.8%, the IC50 ([7]; Homo sapiens, Hep3B) was 52.2 µM and the inhibition at 10 µM [7, 14] was 27%. For the same compound, the inhibition at 100 µM [7, 15] was 26.2%, the IC50 ([8]; Homo sapiens) was 12.2 µM and the inhibition at 10 µM [8, 16] was 5.1%. The inhibition at 100 µM [8, 17] was 19.3%, the IC50 ([9]; Homo sapiens, COLO 320) was 88.4 µM and the inhibition at 10 µM [9, 18] was 4.4%. The inhibition at 100 µM [9, 19] was 4.2%, the maximum tolerance dose [10] was “over 5000 mg/kg” and the inhibition at 10 µM (hERG potassium channel) was 21.5 ± 0.4%. The IC50 (hERG potassium channel) was > 10 µM, the half-life [11, 20] was 76.2 min and the bioavailability ([11]; oral) was 19%. For the same compound, the half-life [11, 21] was 272 min, the “tumor inhibition %, PC-3 (human prostate cancer)” value (human PC-3 tumors) was 36.97% and the “deaths, PC-3 model” value (human PC-3 tumors) was “no death”.
For `Nc1ccccc1NC(=O)c1ccc(CNc2ncnc3ccccc23)cc1` [Compound V-27, N-(2-aminophenyl)-4-[(quinazoline-4-amino)methyl]benzamide], the IC50 (HDACs) was 1.31 µM, the “inhibitory activity according to in vitro IC50 value against HDACs compared with MS-275” value (HDACs) was “better inhibitory activities than MS-275” and the “Inhibition percentage (%) towards HDACs” value (HDACs; 40 μM) was 73.2%. The “Inhibition percentage (%) towards HDACs” value (HDACs; 200 μM) was 82.6%, the “Inhibition percentage (%) towards HDACs” value (HDACs; 2 mM) was 91.9% and the “inhibitory activity on HDACs compared with MS-275” value (HDACs; concentrations of 2 mM, 200 μM, and 40 μM) was “significantly stronger inhibitory activities than MS-275”. For the same compound, the IC50 (HDAC1) was 212 nM, the inhibition at 1 µM (HDAC1) was 58.3% and the inhibition at 10 µM (HDAC1) was 83%. The “inhibitory activity against HDAC1 compared with MS-275” value (HDAC1; both concentrations 10 μM and 1 μM) was “superior to that of MS-275”, the IC50 ([1]; Homo sapiens, HuT78) was 356 nM and the inhibition at 10 µM ([1]; Homo sapiens, HuT78) was 69.2%. The inhibition at 100 µM ([1]; Homo sapiens, HuT78, 100 μM) was 89.3%, the inhibition at 10 µM ([2]; 10 μM) was 44.4% and the inhibition at 100 µM ([2]; 100 μM) was 69.5%. The IC50 ([3]; Homo sapiens, Jurkat E6.1) was 458 nM, the inhibition at 10 µM [3, 12] was 31.6% and the inhibition at 100 µM [3, 13] was 87.6%. The IC50 [4] was 0.437 µM, the inhibition at 10 µM ([4]; 10 μM) was 45% and the inhibition at 100 µM ([4]; 100 μM) was 75%. The IC50 ([5]; Homo sapiens, A549) was 3.14 µM, the inhibition at 10 µM ([5]; Homo sapiens, A549, 10 μM) was 82.8% and the inhibition at 100 µM ([5]; Homo sapiens, A549, 100 μM) was 97.7%. For the same compound, the inhibition at 10 µM ([6]; 10 μM) was 28.5%, the inhibition at 100 µM ([6]; 100 μM) was 76.3% and the IC50 ([7]; Homo sapiens, Hep3B) was 1.52 µM. It also gave an inhibition at 10 µM [7, 14] of -12.3%, an inhibition at 100 µM [7, 15] of 68.3% and an inhibition at 10 µM [8, 16] of 43.8%. The inhibition at 100 µM [8, 17] was 59.9%, the inhibition at 10 µM [9, 18] was 60% and the inhibition at 100 µM [9, 19] was 82.3%. The maximum tolerance dose [10] was “over 2000 mg/kg”, the inhibition at 10 µM (hERG potassium channel) was 29.9 ± 6.7% and the IC50 (hERG potassium channel) was > 10 µM. For the same compound, the half-life [11, 20] was 57 min, the bioavailability ([11]; oral) was 28.6% and the half-life [11, 21] was 202 min. The “antitumor effect on nude mice xenograft model A549” value (human A549 tumors) was “significantly inhibit the growth of tumor”, the “mortality and weight loss in nude mice” value (human A549 tumors) was “no mortality and significant weight loss” and the “tumor inhibition %, A549 (lung cancer)” value (human A549 tumors) was 61.83%. For the same compound, the “deaths, A549 model” value (human A549 tumors) was “no death”.
In the case of `Nc1ccccc1NC(=O)c1ccc(CNC(=O)OCc2cccnc2)cc1` [MS-275, reference compound], the IC50 (HDACs) is reported as 3.52 µM, the “Inhibition percentage (%) towards HDACs” value (HDACs; 40 μM) is reported as 32.5% and the “Inhibition percentage (%) towards HDACs” value (HDACs; 200 μM) is reported as 60.5%. The “Inhibition percentage (%) towards HDACs” value (HDACs; 2 mM) was 82.2%, the IC50 [1] was 528 nM and the “Hut-78 (inhibition %)” value ([1]; 100 μM) was 85.3%. For the same compound, the “PANC-1 (inhibition %)” value ([2]; 10 μM) was 12.4%, the “PANC-1 (inhibition %)” value ([2]; 100 μM) was 31.6% and the IC50 [3] was 561 nM. The “Jurkat E6-1 (inhibition %)” value ([3]; 10 μM) was 89.5%, the “Jurkat E6-1 (inhibition %)” value ([3]; 100 μM) was 96.1% and the “K562 (inhibition %)” value ([4]; 10 μM) was 66.2%. The “K562 (inhibition %)” value ([4]; 100 μM) was 74.6%, the IC50 [5] was 2.28 µM and the “A549 (inhibition %)” value ([5]; 10 μM) was 58.9%. For the same compound, the “A549 (inhibition %)” value ([5]; 100 μM) was 92.3%, the “435s (inhibition %)” value ([6]; 10 μM) was 2.7% and the “435s (inhibition %)” value ([6]; 100 μM) was 59.3%. The IC50 [7] was 6.82 µM, the “Hep3B (inhibition %) 10 μM” value ([7]; Hep3B cell strain, compound at 10 μM, CCK-8 method) was 10.8% and the “Hep3B (inhibition %) 100 μM” value ([7]; Hep3B cell strain, compound at 100 μM, CCK-8 method) was 52.1%. The IC50 [8] was 0.502 µM, the “PC-3 (inhibition %) 10 μM” value ([8]; PC-3 cell strain, compound at 10 μM, CCK-8 method) was 12.5% and the “PC-3 (inhibition %) 100 μM” value ([8]; PC-3 cell strain, compound at 100 μM, CCK-8 method) was 71.5%. The IC50 [9] was 0.522 µM, the “Colo320 (inhibition %) 10 μM” value ([9]; Colo320 cell strain, compound at 10 μM, CCK-8 method) was 18.0% and the “Colo320 (inhibition %) 100 μM” value ([9]; Colo320 cell strain, compound at 100 μM, CCK-8 method) was 61.6%. For the same compound, the “tumor inhibition %, PC-3 (human prostate cancer)” value (human PC-3 tumors) was 89.60%, the “deaths, PC-3 model” value (human PC-3 tumors) was 4 and the “tumor inhibition %, A549 (lung cancer)” value (human A549 tumors) was 79.41%. The “deaths, A549 model” value (human A549 tumors) was 3.
